Reference: ChEMBL document CHEMBL1201862, “PubChem BioAssay data set” (2004)
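Cultured in 96-well plates, cells were exposed to test compound for 48 hours across five concentrations. Here, GI50 denotes the concentration required for 50% inhibition of growth.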 The source made the active and inactive calls. No stated cut-off is given here; in the data, active = GI50 up to about 1.1 µM and inactive = higher.

Assays:
Experiment in all cases: growth of human tumour cells (NCI), 48 h
[1] = test system: SW-620
[2] = test system: NCI/ADR-RES
[3] = test system: SK-OV-3
[4] = test system: IGROV-1
[5] = test system: HCT-15
[6] = test system: MDA-MB-231
[7] = test system: RPMI-8226
[8] = test system: K562
[9] = test system: OVCAR-5
[10] = test system: HCC 2998
[11] = test system: MDA-N
[12] = test system: HOP-62
[13] = test system: NCI-H226
[14] = test system: HL-60
[15] = test system: SF-539
[16] = test system: U-251
[17] = test system: SK-MEL-2
[18] = test system: A498
[19] = test system: UO-31
[20] = test system: NCI-H23

Compound	GI50 [1]	GI50 [2]	GI50 [3]	GI50 [4]	GI50 [5] [µM]	GI50 [6]	GI50 [7]	GI50 [8]	GI50 [9]	GI50 [10]	GI50 [11]	GI50 [12]	GI50 [13]	GI50 [14]	GI50 [15]	GI50 [16]	GI50 [17]	GI50 [18]	GI50 [19]	GI50 [20]
CCP(=O)(OC)C1=CCN(C(=O)OCC[Si](C)(C)C)CC1 (stereo not given)	> 100 µM (inactive)	> 100 µM (inactive)	> 100 µM (inactive)	> 100 µM (inactive)	> 100	> 100 µM (inactive)	> 100 µM (inactive)	> 100 µM (inactive)	> 100 µM (inactive)	> 100 µM (inactive)	> 100 µM (inactive)	> 100 µM (inactive)	> 100 µM (inactive)	> 100 µM (inactive)	72.9 µM (inactive)	> 100 µM (inactive)	> 100 µM (inactive)	> 100 µM (inactive)	> 100 µM (inactive)	> 100 µM (inactive)
CCOC(=O)/C=C(\C(=O)OCC)n1ccc(=O)n(Cc2cn(CCCCOC(C)=O)nn2)c1=O	3.14 µM (inactive)	19.9 µM (inactive)	32.4 µM (inactive)	19.5 µM (inactive)	7.01	18.6 µM (inactive)	8.65 µM (inactive)	4.59 µM (inactive)	14.3 µM (inactive)	21.6 µM (inactive)	19.5 µM (inactive)	20.7 µM (inactive)	13.6 µM (inactive)	0.26 µM (active)	2.34 µM (inactive)	16.1 µM (inactive)	18.8 µM (inactive)	17.6 µM (inactive)	15.3 µM (inactive)	16.6 µM (inactive)
CC(C)(C)NC(=O)[C@H]1CC[C@H]2[C@@H]3CC=C4NC(=O)CC[C@]4(C)[C@H]3CC[C@]12C	> 100 µM (inactive)	64.9 µM (inactive)	> 100 µM (inactive)	> 100 µM (inactive)	> 100	29.3 µM (inactive)	> 100 µM (inactive)	> 100 µM (inactive)	> 100 µM (inactive)	> 100 µM (inactive)	> 100 µM (inactive)	> 100 µM (inactive)	> 100 µM (inactive)	> 100 µM (inactive)	> 100 µM (inactive)	> 100 µM (inactive)	> 100 µM (inactive)	> 100 µM (inactive)	> 100 µM (inactive)	52 µM (inactive)
O=C1CSC2=NC3=C(COC/C3=C\c3ccc(F)cc3)C(c3ccc(F)cc3)N12 (stereo not given)	46 µM (inactive)	58.9 µM (inactive)	> 100 µM (inactive)	86.7 µM (inactive)	37.2	> 100 µM (inactive)	14.9 µM (inactive)	34.4 µM (inactive)	> 100 µM (inactive)	48.6 µM (inactive)	41.7 µM (inactive)	> 100 µM (inactive)	> 100 µM (inactive)	12.6 µM (inactive)	> 100 µM (inactive)	63.7 µM (inactive)	99.5 µM (inactive)	> 100 µM (inactive)	38.4 µM (inactive)	73.1 µM (inactive)
Cc1ccc(/C=C2\CCC/C(=C\c3ccc(O)c(CN4CCCCC4)c3)C2=O)cc1	3.6 µM (inactive)	4.07 µM (inactive)	13.2 µM (inactive)	8.02 µM (inactive)	3.02	5.41 µM (inactive)	5.08 µM (inactive)	3.56 µM (inactive)	17.4 µM (inactive)	4.46 µM (inactive)	4.22 µM (inactive)	15.3 µM (inactive)	7.55 µM (inactive)	3.52 µM (inactive)	9.42 µM (inactive)	5.27 µM (inactive)	19.9 µM (inactive)	3.1 µM (inactive)	11.2 µM (inactive)	5.64 µM (inactive)
O=c1[nH]n(Cc2ccccc2)c2ccc([N+](=O)[O-])cc12	48.9 µM (inactive)	34.8 µM (inactive)	15.7 µM (inactive)	84.3 µM (inactive)	56.1	28.7 µM (inactive)	48.5 µM (inactive)	28.8 µM (inactive)	> 100 µM (inactive)	36.3 µM (inactive)	29.2 µM (inactive)	> 100 µM (inactive)	> 100 µM (inactive)	33.8 µM (inactive)	87.1 µM (inactive)	49.8 µM (inactive)	47.8 µM (inactive)	47.3 µM (inactive)	45.5 µM (inactive)	56.5 µM (inactive)
COc1cc(C2c3cc4c(cc3[C@@H](Nc3ccc(C#N)cc3)C3COC(=O)[C@H]23)OCO4)cc(OC)c1O (stereo not given in full)	0.889 µM (active)	3.98 µM (inactive)	1.63 µM (inactive)	6.78 µM (inactive)	2.31	9.31 µM (inactive)	0.155 µM (active)	0.462 µM (active)	5.64 µM (inactive)	0.0693 µM (active)	6.21 µM (inactive)	0.592 µM (active)	0.665 µM (active)	0.143 µM (active)	1.14 µM (inactive)	1.43 µM (inactive)	14.6 µM (inactive)	2.01 µM (inactive)	1.62 µM (inactive)	0.622 µM (active)
Nc1c2c(nc3ccccc13)-c1ccccc1NCCC2	23.4 µM (inactive)	68.2 µM (inactive)	64.6 µM (inactive)	33.3 µM (inactive)	35.6	19.7 µM (inactive)	20.2 µM (inactive)	23.4 µM (inactive)	35.6 µM (inactive)	13.9 µM (inactive)	17.5 µM (inactive)	16.6 µM (inactive)	25.4 µM (inactive)	18.4 µM (inactive)	21 µM (inactive)	32.2 µM (inactive)	18 µM (inactive)	16.6 µM (inactive)	25 µM (inactive)	47.3 µM (inactive)
O=c1ccc2cc(O)c(O)cc2o1 [ESCULETIN]	> 100 µM (inactive)	> 100 µM (inactive)	> 100 µM (inactive)	> 100 µM (inactive)	> 100	> 100 µM (inactive)	> 100 µM (inactive)	> 100 µM (inactive)	> 100 µM (inactive)	> 100 µM (inactive)	> 100 µM (inactive)	> 100 µM (inactive)	> 100 µM (inactive)	> 100 µM (inactive)	> 100 µM (inactive)	> 100 µM (inactive)	> 100 µM (inactive)	> 100 µM (inactive)	> 100 µM (inactive)	> 100 µM (inactive)
